The results in this text go back to US6800473B1, “Human cathepsin L2 protein, gene encoding said protein and use thereof” (Daiichi Fine Chemical Co., Ltd., priority 1998, dated 2004).

The target of this test is T1, recombinant cathepsin L2 (Homo sapiens, UniProt O60911).
T1 construct: extra Met before Leu114 (ATG of primer L2-1; own reading of the primer) (N); made in house; host or cells: E. coli BL21 (DE3)
It is filed as biochemical. The note with it: FIG. 3(B). The protocol: The enzyme activity of purified cathepsin L2 produced in E. coli was measured by using 20 μM Z-Phe-Arg-AMC or Z-Arg-Arg-AMC (Bachem) as the substrate and following the procedure described by Barrett and Kirschke (Barrett, A. J., et al., Methods Enzymol., 80: 535-561, 1981) with minor modifications. Assays were performed at 30° C. in 100 mM sodium acetate buffer (pH 4.5) containing 10 mM dithiothreitol (DTT) and 2 mM EDTA. Substrate hydrolysis was monitored in a Cytofluor 2350 fluorometer (Millipore) at excitation and emission wavelengths of 360 and 460 nm, respectively. For inhibition assays, the reaction mixture containing recombinant cathepsin L2 was preincubated with 20 μM E-64 (Sigma) at 30° C. for 15 min, and the remaining activity for recombinant cathepsin L2 was determined using the fluorogenic substrate Z-Phe-Arg-AMC as described herein previously. As a positive control of enzyme assays, recombinant cathepsin O produced in E. coli (Velasco, G., et al., J. Biol. Chem., 269: 27136-27142, 1994) was used.

Where [1] appears, read: inhibitors of metalloproteinases, serine-proteinases, aspartyl-proteinases, concentration not given.

Molecules are shown by their SMILES. Where two headings read alike, the source gives them in different places. Where a SMILES comes first, the peptide text is derived from it. [ ]: non-standard residue; d: D form. The star is where a group is joined. Sta = CC(C)C[C@H](N)[C@@H](O)CC(=O)O; Isovaleryl = CC(C)CC(=O)*

T1 sequence (O60911 114-334): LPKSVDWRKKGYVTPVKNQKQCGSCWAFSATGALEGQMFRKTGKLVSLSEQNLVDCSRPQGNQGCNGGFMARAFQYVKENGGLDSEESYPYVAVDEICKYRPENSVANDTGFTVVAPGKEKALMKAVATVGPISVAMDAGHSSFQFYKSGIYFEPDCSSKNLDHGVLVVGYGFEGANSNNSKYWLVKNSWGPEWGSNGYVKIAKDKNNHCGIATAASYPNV

Take `CC(C)C[C@H](NC(=O)[C@H]1O[C@@H]1C(=O)O)C(=O)NCCCCN=C(N)N` (relative stereo) [Clone E-64, trans-epoxysuccinyl-L-leucylamido-(4-guanidino)butane]: the “proteolytic activity of cathepsin L2 against Z-Phe-Arg-AMC in the presence of inhibitor” value (“proteolytic activity … of inhibitor” below) (preincubated with 20 μM E-64 at 30° C. for 15 min, 100 mM sodium acetate buffer pH 4.5, 10 mM DTT, 2 mM EDTA) is given as “abolished”. Turning to `CC(C)CC(=O)N[C@H](C(=O)N[C@H](C(=O)N[C@@H](CC(C)C)[C@@H](O)CC(=O)N[C@@H](C)C(=O)N[C@@H](CC(C)C)[C@@H](O)CC(=O)O)C(C)C)C(C)C` [pepstatin A] (Isovaleryl-VV[Sta]A[Sta]-OH), the “proteolytic activity … of inhibitor” value under setting [1] was “not abolished”. Turning to `O=S(=O)(F)Cc1ccccc1` [phenylmethylsulfonyl fluoride], under setting [1], the “proteolytic activity … of inhibitor” value is “not abolished”.
